Measured values from patent US6943166B1, “Compositions comprising phosphodiesterase inhabitors for the treatment of sexual disfunction” (Lilly ICOS LLC., priority 1999, dated 2005).

Assays:
[1] = system: PDEl; conditions: package insert; cited from earlier work
[2] = system: patients taking organic nitrates; conditions: combination with organic nitrates; cited from earlier work
[3] = system: healthy male volunteers; assay: Example 5: drug interaction study of Compound (I) with short-acting nitrates (hemodynamic effects); type: in vivo, human
Method: On the sixth or seventh day, the subjects received sublingual nitroglycerin (0.4 mg) while supine on a tilt table. […] The subjects were tilted to 70° head-up every 5 minutes for a total of 30 minutes with measurement of blood pressure and heart rate. There were no discontinuations among the twenty-two healthy male subjects (ages 19 to 60 years old) that entered this study.

[4] = system: patients in need thereof; assay: Example 6: two randomized, double-blinded placebo controlled studies, daily and on demand dosing; type: in vivo, human
Method: In two randomized, double-blinded placebo controlled studies, Compound (I) was administered to patients in need thereof at a range of doses, in both daily dosing and for on demand therapy, for sexual encounters and intercourse in the home setting.
Enhanced erectile function was determined by the International Index of Erectile Function (IIEF) (Rosen et al., Urology, 49, pp. 822-830 (1997)), diaries of sexual attempts, and a global satisfaction question.

[5] = system: patients with male erectile dysfunction; assay: Example 7: placebo-controlled on demand study in male erectile dysfunction (IIEF, SEP, safety); type: in vivo, human; conditions: for patients who rated ability to maintain an erection (IIEF Question 4) as almost always or always: at endpoint
Method: A third clinical study was a randomized, double-blind, placebo-controlled study of Compound (I) administered “on demand” to patients with male erectile dysfunction. Compound (I) was administered over a period of eight weeks in the treatment of male erectile dysfunction (ED). Erectile dysfunction (ED) is defined as the persistent inability to attain and/or maintain an erection adequate to permit satisfactory sexual performance.
The study population consisted of 212 men, at least 18 years of age, with mild to severe erectile dysfunction. […] Treatment with all nitrates, azole antifungals (e.g., ketoconazole or itraconazole), warfarin, erythromycin, or antiandrogens was not allowed at any time during the study. No other approved or experimental medications, treatments, or devices used to treat ED were allowed. Forty-one subjects were administered a placebo.
The two primary efficacy variables were the ability of a subject to penetrate their partner and their ability to maintain an erection during intercourse, as measured by the International Index of Erectile Function (IIEF). The IIEF Questionnaire contains fifteen questions, and is a brief, reliable measure of erectile function. See R. C. Rosen et al., Urology, 49, pp. 822-830 (1997)
Secondary efficacy variables were IIEF domain scores for erectile function, orgasmic function, sexual desire, intercourse satisfaction, and overall satisfaction; the patient's ability to achieve an erection, ability to insert their penis into their partner's vagina, completion of intercourse with ejaculation, satisfaction with the hardness of their erection, and overall satisfaction, all as measured by the Sexual Encounter Profile (SEP) diary; and a global assessment question asked at the end of the treatment period. […]
The safety aspect of the study included all enrolled subjects, and was assessed by evaluating all reported adverse events, and changes in clinical laboratory values, vital signs, physical examination results, and electrocardiogram results.

[6] = 10 mg daily for seven days, sublingual nitroglycerin 0.4 mg

SMILES	more potent inhibitor of PDE5 than PDE1 [1]	blood pressure effect in patients taking organic nitrates [2]	changes in laboratory safety assessments or 12-lead ECGs ([3]; 10 mg daily for seven days)	effect on mean maximal nitroglycerin-induced decrease in systolic blood pressure [3, 6]	effect on mean systolic blood pressure [3, 6]	impact on systolic blood pressure ([3]; administered in conjunction with organic nitrates, human clinical studies)	efficacy for sexual encounters and intercourse ([4]; 10 mg dose)	side effects ([4]; 10 mg dose)	efficacy for sexual encounters and intercourse ([4]; doses from 5 to 20 mg)	flushing ([4]; doses from 5 to 20 mg)	percentage of successful intercourse attempts including ability to attain and maintain an erection ([4]; on demand and daily dosing regimens)	patients who rated ability to maintain an erection (IIEF Question 4) as almost always or always ([5]; 10 mg on demand)	patients who rated ability to maintain an erection (IIEF Question 4) as almost always or always ([5]; 25 mg on demand)	incidence of treatment-emergent adverse events ([5]; 2 to 25 mg on demand)
CCCc1nn(C)c2c(=O)[nH]c(-c3cc(S(=O)(=O)N4CCN(C)CC4)ccc3OCC)nc12 [sildenafil]	greater than 80 fold	clinically significant drop in blood pressure	–	–	–	–	–	–	–	–	–	–	–	–
CN1CC(=O)N2[C@H](c3ccc4c(c3)OCO4)c3[nH]c4ccccc4c3C[C@@H]2C1=O [Compound (I), (6R,12aR)-2,3,6,7,12,12a-hexahydro-2-methyl-6-(3,4-methylenedioxyphenyl)-pyrazino[2′,1′:6,1]pyrido[3,4-b]indole-1,4-dione]	–	–	no Compound (I) changes	minimal, if any, effect	minimal, if any, effect	minimal impact	fully efficacious	minimal side effects	efficacious	less than 1%	significantly improved	39.0%	69.0%	appeared related to dose
